Laboratory results published in ChEMBL document CHEMBL1122099, “Antiallergics: 3-(1H-tetrazol-5-yl)-4H-pyrimido[2,1-b]benzothiazol-4-ones” (1982).

Experiments:
[1] = test system: Rattus norvegicus; assay: Tested for the antiallergic activity in rat passive cutaneous anaphylaxis (PCA) test; po; format: functional
[2] = test system: Rattus norvegicus; assay: Percent inhibition at a concentration of 25 mg/kg in rat passive cutaneous anaphylaxis (PCA) test; format: functional
[3] = test system: Rattus norvegicus; assay: Percent inhibition at a concentration of 0.1 mg/kg in methacholine induced bronchospasm in rat; format: functional
[4] = species: Rattus norvegicus; assay: Tested for the bronchodilator activity by measuring inhibition of allergen induced bronchospasm in rat intra duodenally
[5] = test system: Rattus norvegicus; assay: Percent inhibition at a concentration of 10.0 mg/kg in methacholine induced bronchospasm in rat; format: functional
[6] = test system: Rattus norvegicus; assay: Percent inhibition at a concentration of 1.0 mg/kg in methacholine induced bronchospasm in rat; format: functional
[7] = test system: Rattus norvegicus; assay: Percent inhibition at a concentration of 0.02 mg/kg in methacholine induced bronchospasm in rat intraduodenally; format: functional; settings: route intraduodenal

Work on `N=c1c(-c2nnn[nH]2)cnc2sc3ccccc3n12` yielded an ED50 [1] of 8.1 mg/kg.
`Cc1cc2sc3ncc(-c4nnn[nH]4)c(=O)n3c2cc1C` showed an inhibition in vivo at 25 mg/kg [2] of 35%.
Work on `O=C([O-])c1cc(=O)c2c(OCC(O)COc3cccc4oc(C(=O)[O-])cc(=O)c34)cccc2o1.[Na+].[Na+]` [CROMOLYN SODIUM] yielded an ED50 [1] of 0.3 mg/kg.
For `O=c1c(-c2nnn[n-]2)cnc2sc3ccccc3n12.[K+]`, the inhibition in vivo at 0.1 mg/kg [3] was 37.4%, the ED50 [4] was 0.38 mg/kg and the inhibition in vivo at 10 mg/kg [5] was 61%. It also gave an inhibition in vivo at 1 mg/kg [6] of 59.3%, an inhibition in vivo at 0.02 mg/kg [7] of 13.2% and an ED50 [1] of 0.08 mg/kg.
`Cc1cc(C)c2sc3ncc(-c4nnn[nH]4)c(=O)n3c2c1` showed an ED50 [1] of 1.96 mg/kg.
For `COc1ccc2c(c1)sc1ncc(-c3nnn[nH]3)c(=O)n12`, the ED50 [1] was 1.9 mg/kg.
